Results reported in ChEMBL document CHEMBL5143714, “Discovery of BMS-986339, a Pharmacologically Differentiated Farnesoid X Receptor Agonist for the Treatment of Nonalcoholic Steatohepatitis” (J Med Chem, 2022).

What was measured:
[1] = system: Bile acid receptor (Homo sapiens); assay: Agonist activity at human FXR expressed in HEK293 cells coexpressing IBABP relative to GW2064; details: filed as agonist
[2] = Half life in C57BL6 mouse at 1 mg/kg, iv; type: ADME, organism-based; details: in vivo
[3] = AUC (total) in Sprague-Dawley rat at 2 mg/kg, po; type: ADME, organism-based; set-up: dose 2 mg/kg, route po; details: in vivo
[4] = Volume of distribution at steady state in Sprague-Dawley rat at 1 mg/kg, iv; type: ADME, organism-based; details: in vivo, read-out: Vdss
[5] = biological target: T1, Nuclear receptor subfamily 1 group I member 2 (Homo sapiens, UniProt O75469); assay: Transactivation of PXR (unknown origin) relative to refampicin; type: ADME
T1 sequence (O75469 whole entry): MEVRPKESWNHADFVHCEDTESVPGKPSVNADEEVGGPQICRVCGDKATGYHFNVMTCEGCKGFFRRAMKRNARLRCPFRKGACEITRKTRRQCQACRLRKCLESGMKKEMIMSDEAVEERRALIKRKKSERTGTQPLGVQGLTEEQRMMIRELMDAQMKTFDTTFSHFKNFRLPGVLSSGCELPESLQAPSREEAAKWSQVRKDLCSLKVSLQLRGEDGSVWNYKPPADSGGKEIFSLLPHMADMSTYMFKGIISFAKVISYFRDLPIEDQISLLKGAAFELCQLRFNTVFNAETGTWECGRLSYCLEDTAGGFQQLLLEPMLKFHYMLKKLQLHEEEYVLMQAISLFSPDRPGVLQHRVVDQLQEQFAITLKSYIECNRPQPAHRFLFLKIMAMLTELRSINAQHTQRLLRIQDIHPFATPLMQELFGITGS

[6] = Genotoxicity in Salmonella typhimurium by Ames test; type: toxicity; details: salmonella enterica subsp. enterica serovar typhimurium
Mus musculus [7] = assay: Antifibrotic activity against bile duct ligation-induced liver cholestasis C57BL/6NTac mouse model assessed as reduction in collagen level administered orally as single dose for 9 days and measured after 24 hrs post-last dose by picrosirius red staining method; type: functional, organism-based; details: dose 0.3-10 mg/kg, route po, time 9.0 day, DDE = dose-dependent effect
[8] = AUC (total) in Sprague-Dawley rat at 1 mg/kg, iv; type: ADME, organism-based; set-up: dose 1 mg/kg, route iv; details: in vivo
Mus musculus [9] = assay: Antifibrotic activity against bile duct ligation-induced liver cholestasis C57BL/6NTac mouse model assessed as reduction in hydroxyproline level in liver administered orally as single dose for 9 days and measured after 24 hrs post-last dose by picrosirius red staining method; type: functional, organism-based; details: dose 0.3-10 mg/kg, route po, time 9.0 day, DDE = dose-dependent effect
[10] = biological target: T2, Bile acid receptor (Mus musculus) (UniProt Q60641); assay: Agonist activity at LBD-fused mouse FXR in HEK293 cells incubated for 30 min by envision plate reader method relative to GW2064; type: cell-based; details: filed as agonist
T2 sequence (whole entry): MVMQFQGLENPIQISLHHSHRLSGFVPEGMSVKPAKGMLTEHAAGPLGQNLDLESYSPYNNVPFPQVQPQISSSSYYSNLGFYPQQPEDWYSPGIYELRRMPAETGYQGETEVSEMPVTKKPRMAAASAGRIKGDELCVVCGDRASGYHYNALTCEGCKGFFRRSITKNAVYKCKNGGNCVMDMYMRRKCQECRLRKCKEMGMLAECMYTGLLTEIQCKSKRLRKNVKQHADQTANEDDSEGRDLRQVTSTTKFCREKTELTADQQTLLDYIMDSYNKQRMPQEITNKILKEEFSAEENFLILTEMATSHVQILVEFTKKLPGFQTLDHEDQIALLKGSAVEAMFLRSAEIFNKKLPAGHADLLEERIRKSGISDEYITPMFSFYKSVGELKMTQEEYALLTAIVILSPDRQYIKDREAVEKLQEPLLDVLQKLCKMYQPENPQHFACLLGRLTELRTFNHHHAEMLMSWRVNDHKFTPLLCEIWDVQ

[11] = biological target: T3, UDP-glucuronosyltransferase 1A1 (Homo sapiens, UniProt P22309); assay: Inhibition of human UGT1A1
T3 sequence (P22309 whole entry): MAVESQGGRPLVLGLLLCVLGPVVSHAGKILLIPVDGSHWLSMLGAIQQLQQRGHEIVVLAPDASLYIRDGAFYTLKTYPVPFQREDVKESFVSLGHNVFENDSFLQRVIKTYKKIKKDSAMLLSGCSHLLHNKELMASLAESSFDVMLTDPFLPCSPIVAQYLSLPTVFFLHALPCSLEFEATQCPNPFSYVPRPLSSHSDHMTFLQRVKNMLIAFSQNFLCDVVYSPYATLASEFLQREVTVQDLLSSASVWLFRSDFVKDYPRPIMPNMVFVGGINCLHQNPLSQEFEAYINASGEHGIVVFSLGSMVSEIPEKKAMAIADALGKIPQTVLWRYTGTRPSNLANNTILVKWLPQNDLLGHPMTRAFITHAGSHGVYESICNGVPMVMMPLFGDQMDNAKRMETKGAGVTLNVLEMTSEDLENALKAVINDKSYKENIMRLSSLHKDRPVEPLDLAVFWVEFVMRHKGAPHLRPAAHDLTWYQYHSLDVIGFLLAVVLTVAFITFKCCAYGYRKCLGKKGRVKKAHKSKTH

[12] = biological target: T1, Nuclear receptor subfamily 1 group I member 2; assay: Transactivation of PXR (unknown origin); type: ADME
Cytochrome P450 2C8 = biological target: T4, Cytochrome P450 2C8 (Homo sapiens, UniProt P10632); assay: Inhibition of CYP2C8 in human liver microsomes using fluorogenic substrate preincubated for 15 min followed by NADPH addition measured after 2 hrs by fluorescence based assay; type: ADME, Microsome
T4 sequence (P10632 whole entry): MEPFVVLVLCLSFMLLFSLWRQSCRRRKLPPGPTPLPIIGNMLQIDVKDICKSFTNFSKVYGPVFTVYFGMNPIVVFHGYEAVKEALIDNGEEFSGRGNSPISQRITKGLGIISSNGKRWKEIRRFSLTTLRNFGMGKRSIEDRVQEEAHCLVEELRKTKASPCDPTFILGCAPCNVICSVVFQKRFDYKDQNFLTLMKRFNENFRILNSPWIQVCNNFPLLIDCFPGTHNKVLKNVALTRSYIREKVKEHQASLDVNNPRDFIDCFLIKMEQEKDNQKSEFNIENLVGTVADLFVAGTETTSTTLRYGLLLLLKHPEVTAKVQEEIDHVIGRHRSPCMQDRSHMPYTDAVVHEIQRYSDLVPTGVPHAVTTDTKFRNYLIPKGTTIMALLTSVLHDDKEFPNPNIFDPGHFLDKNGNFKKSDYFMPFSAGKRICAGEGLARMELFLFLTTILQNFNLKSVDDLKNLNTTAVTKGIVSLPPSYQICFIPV

[13] = Clearance in Sprague-Dawley rat at 1 mg/kg, iv; type: ADME, organism-based; details: in vivo
[14] = Volume of distribution at steady state in C57BL6 mouse at 1 mg/kg, iv; type: ADME, organism-based; details: in vivo, read-out: Vdss
Cytochrome P450 2D6 = Cytochrome P450 2D6 (Homo sapiens, UniProt P10635); assay: Inhibition of CYP2D6 in human liver microsomes using fluorogenic substrate preincubated for 15 min followed by NADPH addition measured after 2 hrs by fluorescence based assay; type: ADME, Microsome
Cytochrome P450 2C19 = Cytochrome P450 2C19 (Homo sapiens, UniProt P33261); assay: Inhibition of CYP2C19 in human liver microsomes using fluorogenic substrate preincubated for 15 min followed by NADPH addition measured after 2 hrs by fluorescence based assay; type: ADME, Microsome
[15] = Metabolic stability in human liver microsome assessed as parent compound remaining at […] measured after 10 mins; type: ADME; details: liver microsomes, read-out: Stability

Chain of Cytochrome P450 2C19 (P33261 whole entry): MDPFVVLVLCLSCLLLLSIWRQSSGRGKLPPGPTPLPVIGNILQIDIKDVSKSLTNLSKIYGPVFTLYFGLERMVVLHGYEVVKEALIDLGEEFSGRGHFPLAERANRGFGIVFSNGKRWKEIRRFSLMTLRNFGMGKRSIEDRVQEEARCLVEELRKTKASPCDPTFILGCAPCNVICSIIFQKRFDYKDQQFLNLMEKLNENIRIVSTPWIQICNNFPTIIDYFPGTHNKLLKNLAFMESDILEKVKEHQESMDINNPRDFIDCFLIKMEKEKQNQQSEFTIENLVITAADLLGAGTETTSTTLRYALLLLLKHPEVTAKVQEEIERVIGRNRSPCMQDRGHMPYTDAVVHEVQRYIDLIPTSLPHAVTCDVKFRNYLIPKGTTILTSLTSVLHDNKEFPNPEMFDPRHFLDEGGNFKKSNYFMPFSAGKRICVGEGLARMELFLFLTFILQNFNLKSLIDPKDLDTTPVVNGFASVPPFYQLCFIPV
Chain of Cytochrome P450 2D6 (P10635 whole entry): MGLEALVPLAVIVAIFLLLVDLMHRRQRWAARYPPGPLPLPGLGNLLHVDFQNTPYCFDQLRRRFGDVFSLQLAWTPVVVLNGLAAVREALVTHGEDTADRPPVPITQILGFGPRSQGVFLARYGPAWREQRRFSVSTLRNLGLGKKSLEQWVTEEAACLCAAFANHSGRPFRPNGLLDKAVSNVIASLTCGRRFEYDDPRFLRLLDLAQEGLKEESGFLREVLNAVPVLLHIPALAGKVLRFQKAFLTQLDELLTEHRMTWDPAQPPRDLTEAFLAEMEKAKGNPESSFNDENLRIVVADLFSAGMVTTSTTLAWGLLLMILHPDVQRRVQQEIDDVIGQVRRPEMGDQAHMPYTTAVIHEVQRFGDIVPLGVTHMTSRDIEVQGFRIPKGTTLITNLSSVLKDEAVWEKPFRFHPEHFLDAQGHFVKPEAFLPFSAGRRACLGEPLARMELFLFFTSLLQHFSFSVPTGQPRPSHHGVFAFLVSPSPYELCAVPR

Emax [1]: 80%
half-life [2]: 16 h
AUC [3]: 5.8 µM·h
Vd [4]: 5.2 L/kg
Emax [5]: 11%
AUC [8]: 6.6 µM·h
Emax [10]: 601%
IC50 [11]: 1.5 µM
EC50 [12]: 50 µM
IC50 (Cytochrome P450 2C8): > 20 µM
clearance [13]: 4 mL/min/kg
Vd [14]: 2.2 L/kg
IC50 (Cytochrome P450 2D6): > 20 µM
IC50 (Cytochrome P450 2C19): > 20 µM
remaining at 10 min [15]: 100%
SMILES: CC(C)(O)c1ccc(-c2cccc(N(CC34CCC(c5noc(C(C)(C)F)n5)(CC3)CC4)C(=O)[C@H]3C[C@](O)(C(F)(F)F)C3)c2)cc1
Activity [6]: Non-Toxic
Activity (Mus musculus [7]): Dde
Activity (Mus musculus [9]): Dde
